Measured values published in publication PMC12263422, “Cryo-EM structure of the human THIK-1 K2P K^+ channel reveals a lower Y gate regulated by lipids and anesthetics” (Nature Structural & Molecular Biology, 2025).
Numbering of substitutions follows the chain as printed. Where “and” joins values, the source holds several entries; their conditions need not be identical. Equal entries are not always repeated. Where two headings read alike, the source gives them in different places. One block for each compound: values may come before it.

What was measured:
Assay type in all cases: cell-based
[1] = molecular target: T1, THIK-1-Y273W (Homo sapiens, UniProt Q9HB14, Y273W); assay: Inside-out excised patch recordings, oocytes, THIK-1 Y273W mutant
T1 construct: expressed in transfected cells; host or cells: Xenopus oocytes (mRNA injection)
T1 sequence (Q9HB14 1-408 Y273W): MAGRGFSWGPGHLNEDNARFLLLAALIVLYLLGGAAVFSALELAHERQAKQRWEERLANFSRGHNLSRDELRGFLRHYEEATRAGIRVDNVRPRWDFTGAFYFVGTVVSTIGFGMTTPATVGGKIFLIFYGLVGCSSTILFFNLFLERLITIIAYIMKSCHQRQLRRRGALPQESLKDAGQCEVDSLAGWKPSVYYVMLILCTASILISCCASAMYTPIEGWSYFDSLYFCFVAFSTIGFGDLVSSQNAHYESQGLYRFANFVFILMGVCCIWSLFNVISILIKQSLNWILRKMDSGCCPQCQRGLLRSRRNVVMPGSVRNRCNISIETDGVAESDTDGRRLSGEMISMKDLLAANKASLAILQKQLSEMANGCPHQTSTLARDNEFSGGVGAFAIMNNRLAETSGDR
Excerpt: (§1) Human K2P13.1 THIK-1 (GenBank accession number: NM_022054) and human K2P12.1 THIK-2 (NM_022055.1) were used in this study. For functional expression studies, the respective K^+ channel subtype coding sequences were subcloned into the oocyte expression vector pSGEM or the dual-purpose expression vector pFAW[41] and verified by sequencing. All mutant channels were obtained by site-directed mutagenesis and verified by sequencing. To increase surface expression and macroscopic currents, measurements of THIK-2 channels used a mutated ER retention motif, (R11A R12A R14A R15A R16A; THIK-2*)[20]. Vector DNA was linearized with NheI or MluI, and mRNA was synthesized in vitro using the SP6 or T7 AmpliCap Max High Yield Message Maker Kit (Cellscript, USA) or HiScribe T7 ARCA mRNA Kit (New England Biolabs).
Two-electrode voltage–clamp (TEVC) studies were performed in Xenopus oocytes. All animal use conformed to the Guide for the Care and Use of Laboratory Animals (NIH Publication 85–23), and all experiments using Xenopus toads were approved by the local ethics panels. Oocytes were stored at 17 °C in ND96 recording solution composed of (in mM): 96 NaCl, 2 KCl, 1.8 CaCl2, 1 MgCl2, 5 HEPES (pH 7.5 adjusted with NaOH and HCl), supplemented with Na-pyruvate (275 mg L^–1), theophylline (90 mg L^–1) and gentamicin (50 mg L^–1). Oocytes were injected with 1 ng mRNA for WT or mutant channels, and were incubated for 24–48 h at 17 °C. Two-electrode voltage clamp recordings were then performed as previously described[42],[43]. For macroscopic patch–clamp measurements, oocytes were obtained as described above incubated at 17 °C in a solution containing (mM): 54 NaCl, 30 KCl, 2.4 NaHCO3, 0.82 MgSO4 ×7 H2O, 0.41 CaCl2, 0.33 Ca(NO3)2 ×4 H2O and 7.5 TRIS (pH 7.4 adjusted with NaOH and HCl) for 1–4 days before use. Excised patch recordings in inside-out configuration conditions were performed at room temperature. Patch pipettes were made from thick-walled borosilicate glass GB 200TF-8P (Science Products), had resistances of 0.2–0.5 MΩ (tip diameter, 10–25 µm) and filled with a pipette solution (in mM): 120 KCl, 10 HEPES and 3.6 CaCl2 (pH 7.4 adjusted with KOH and HCl). […] Currents were recorded with an EPC10 amplifier (HEKA Electronics) and sampled at 10 kHz or higher, with filtering set to 3 kHz (–3 dB) or higher, as appropriate for sampling rate. For measurements of GPCR activation, whole-cell currents were recorded for THIK-1 in transiently transfected HEK-293 cells. […] Single-channel currents were recorded with an Axopatch 200B amplifier through a Digidata 1440A digitizer (Molecular Devices). Data were filtered at 2 kHz and recorded at a 200-kHz sampling rate with the program Clampex (Molecular Devices). […]

[2] = molecular target: T2, THIK-1 R87D (Homo sapiens, UniProt Q9HB14, R87D); assay: Macroscopic inside-out excised patch recordings, oocytes, THIK-1 R87D mutant
T2 construct: expressed in transfected cells; host or cells: Xenopus oocytes (mRNA injection)
T2 sequence (Q9HB14 1-408 R87D): T1 sequence (Q9HB14 1-408 Y273W) with R87D, W273Y
Excerpt: as §1
Two-electrode voltage–clamp (TEVC) studies were performed in Xenopus oocytes. All animal use conformed to the Guide for the Care and Use of Laboratory Animals (NIH Publication 85–23), and all experiments using Xenopus toads were approved by the local ethics panels. Oocytes were stored at 17 °C in ND96 recording solution composed of (in mM): 96 NaCl, 2 KCl, 1.8 CaCl2, 1 MgCl2, 5 HEPES (pH 7.5 adjusted with NaOH and HCl), supplemented with Na-pyruvate (275 mg L^–1), theophylline (90 mg L^–1) and gentamicin (50 mg L^–1). Oocytes were injected with 1 ng mRNA for WT or mutant channels, and were incubated for 24–48 h at 17 °C. Two-electrode voltage clamp recordings were then performed as previously described[42],[43]. For macroscopic patch–clamp measurements, oocytes were obtained as described above incubated at 17 °C in a solution containing (mM): 54 NaCl, 30 KCl, 2.4 NaHCO3, 0.82 MgSO4 ×7 H2O, 0.41 CaCl2, 0.33 Ca(NO3)2 ×4 H2O and 7.5 TRIS (pH 7.4 adjusted with NaOH and HCl) for 1–4 days before use. Excised patch recordings in inside-out configuration conditions were performed at room temperature. Patch pipettes were made from thick-walled borosilicate glass GB 200TF-8P (Science Products), had resistances of 0.2–0.5 MΩ (tip diameter, 10–25 µm) and filled with a pipette solution (in mM): 120 KCl, 10 HEPES and 3.6 CaCl2 (pH 7.4 adjusted with KOH and HCl). Intracellular bath solutions and compounds were applied to the cytoplasmic side of excised patches for the various K^+ channels through a gravity flow multi-barrel pipette system. The intracellular solution had the following composition (in mM): 120 KCl, 10 HEPES, 2 EGTA and 1 pyrophosphate (pH adjusted with KOH and HCl). Currents were recorded with an EPC10 amplifier (HEKA Electronics) and sampled at 10 kHz or higher, with filtering set to 3 kHz (–3 dB) or higher, as appropriate for sampling rate. For measurements of GPCR activation, whole-cell currents were recorded for THIK-1 in transiently transfected HEK-293 cells. Cells were stimulated by a ramp protocol between −100 and +60 mV (holding potential, −80 mV). The pipette solution was composed of (in mM): 140 KCl, 2 MgCl2, 1 CaCl2, 2.5 EGTA and 10 HEPES (pH 7.3 adjusted with KOH and HCl). The extracellular bath solution had the following composition (in mM): 135 NaCl, 5 KCl, 2 MgCl2, 2 CaCl2, 10 glucose and 10 HEPES pH (pH 7.3 adjusted with NaOH and HCl). Oxotremorine M (Oxo-M) was added to extracellular bath solution to obtain the final concentration. Single-channel currents were recorded with an Axopatch 200B amplifier through a Digidata 1440A digitizer (Molecular Devices). Data were filtered at 2 kHz and recorded at a 200-kHz sampling rate with the program Clampex (Molecular Devices). Pipette solution and bath solution for cell-attached recordings contained (in mM): 140 KCl, 2 MgCl2, 1 CaCl2 and 10 HEPES (pH 7.4 adjusted with KOH and HCl). For inside-out recordings, the bath solution contained (in mM): 140 KCl, 2 MgCl2, 1 CaCl2 and 10 HEPES (pH 7.2 adjusted with KOH and HCl). All experiments were conducted at room temperature. […]

[3] = molecular target: T3, THIK-1 R258A (Homo sapiens, UniProt Q9HB14, R258A); assay: Inside-out excised patch recordings, oocytes, THIK-1 R258A mutant (lipid activation); conditions: read-out: Linoleic acid EC50
T3 construct: expressed in transfected cells; host or cells: Xenopus oocytes (mRNA injection)
T3 sequence (Q9HB14 whole entry R258A): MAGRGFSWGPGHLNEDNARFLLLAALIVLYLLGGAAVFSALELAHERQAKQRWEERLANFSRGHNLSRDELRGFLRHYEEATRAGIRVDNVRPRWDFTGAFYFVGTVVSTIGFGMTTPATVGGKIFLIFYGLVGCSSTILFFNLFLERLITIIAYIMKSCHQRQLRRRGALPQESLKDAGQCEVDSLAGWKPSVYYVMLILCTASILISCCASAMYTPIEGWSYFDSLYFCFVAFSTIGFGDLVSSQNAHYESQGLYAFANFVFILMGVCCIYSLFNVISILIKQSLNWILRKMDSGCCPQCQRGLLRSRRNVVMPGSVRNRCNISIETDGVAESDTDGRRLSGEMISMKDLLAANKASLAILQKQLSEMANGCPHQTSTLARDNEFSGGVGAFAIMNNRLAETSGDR
Excerpt: Supplement 41594_2025_1497_MOESM2_ESM.xlsx, sheet "ExtData_Fig_S5f" | column: Linoleic acid EC50 (µM); R258A

Structure (SMILES): CCCCC[N+](CCCCC)(CCCCC)CCCCC [TPenA, tetrapentylammonium]
τ of 1 mM TPenA block ([1]; individual recordings): 13.500 s and 9.700 s and 8.400 s and 10.003 s and 8.350 s and 4.860 s and 3.160 s and 2.380 s and 2.990 s and 4.490 s and 10.150 s and 2.500 s and 2.400 s and 9.800 s and 5.700 s and 4.500 s and 4.080 s
τ of 1 mM TPenA release ([1]; individual recordings): 20.400 s and 14.700 s and 10.800 s and 14.800 s and 23.260 s and 14.350 s and 14.990 s and 14.820 s and 16.280 s and 20.350 s and 17.660 s
τ of 1 mM TPenA block ([1]; mean): 6.29 s
τ of 1 mM TPenA release ([1]; mean): 16.58 s

inhibition at 3000 µM ([2]; 3.0 mM halothane, R87D, mean): 62.8%
inhibition at 152 µM ([2]; THIK-1 R87D, 0.152 mM halothane): 14.3%
inhibition at 304 µM ([2]; THIK-1 R87D, 0.304 mM halothane): 26%
inhibition at 1520 µM ([2]; THIK-1 R87D, 1.52 mM halothane): 53.8%
inhibition at 15200 µM ([2]; THIK-1 R87D, 15.2 mM halothane): 84.1%
Structure (SMILES): FC(F)(F)C(Cl)Br (stereo not drawn) [halothane]
Inhibition (%) ([2]; 3.0 mM halothane, R87D, individual recordings): 54.110% and 64.133% and 70.295% and 57.409% and 74.945% and 46.769% and 63.754% and 70.637% and 69.367% and 64.901% and 58.344% and 70.045% and 57.366% and 63.096% and 56.800%

EC50 ([3]; individual recordings): 24.9 µM and 30.3 µM and 69.4 µM and 74.3 µM and 47.4 µM and 62.2 µM and 21.9 µM and 23.3 µM and 47.9 µM and 30 µM
EC50 ([3]; mean): 43.2 µM
Structure (SMILES): CCCCC/C=C\C/C=C\CCCCCCCC(=O)O [linoleic acid]
